Measurements from patent US11109593B2, “Isoxazolin-5-one derivative and herbicide containing same as active ingredient” (HOKKO CHEMICAL INDUSTRY CO., LTD., priority 2017, dated 2021).

Legend:
Assay type in all cases: in vivo
Echinochloa crus-galli [1] = assay: Test Example 1: herbicidal effect test by treatment of rice paddy soil (immediately after seeding); settings: 120 g/10a active ingredient, dry weight vs untreated area, 14 days after treatment
Method in brief: (§1)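 Flooded paddy pot test in a glass greenhouse: emulsion diluted in water, dropped at 120 g a.i. per 10 ares just after sowing, water depth kept about 3 cm. Dry-weight reduction relative to untreated plants is scored at 14 days.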

Scirpus juncoides [2] = assay: as above; settings: 120 g/10a active ingredient, dry weight vs untreated area, 14 days after treatment
Method in brief: as §1

[3] = system: broad leaf weeds (Lindernia pyxidaria and Monochoria vaginalis); assay: as above; settings: 120 g/10a active ingredient, dry weight vs untreated area, 14 days after treatment
Method in brief: as §1

Echinochloa crus-galli [4] = assay: Test Example 2: herbicidal effect test by treatment during growing period in paddy rice cultivation (seven days after seeding); settings: 120 g/10a active ingredient, assessed 14 days after treatment, dry weight vs untreated area
Method in brief: (§2)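 Post-emergence paddy water application: compounds were formulated as emulsions, diluted and dropped into flooded pots seven days after sowing at a rate equivalent to 120 g per 10 ares. Efficacy was taken as dry-weight reduction relative to untreated controls after 14 days.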

Scirpus juncoides [5] = assay: as above; settings: 120 g/10a active ingredient, assessed 14 days after treatment, dry weight vs untreated area
Method in brief: as §2

[6] = system: broad leaf weeds (Lindernia pyxidaria and Monochoria vaginalis); assay: as above; settings: 120 g/10a active ingredient, assessed 14 days after treatment, dry weight vs untreated area
Method in brief: as §2

Amaranthus viridis [7] = assay: Test Example 3: herbicidal effect test by treatment of dry field farming soil (one day after seeding); settings: 120 g/10a active ingredient, evaluated 14 days after treatment
Method in brief: (§3)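 Dry-field alluvium pots; weed seeds incorporated in top 1 cm; soil spray of diluted emulsion 1 d after seeding, 120 g a.i./10 a in 100 L/10 a. Readout: % reduction of dry weight vs untreated, day 14, duplicates.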

Chenopodium album [8] = assay: as above; settings: 120 g/10a active ingredient, evaluated 14 days after treatment
Method in brief: as §3

Echinochloa crus-galli [9] = assay: as above; settings: 120 g/10a active ingredient, evaluated 14 days after treatment
Method in brief: as §3

southern crabgrass [10] = assay: as above; settings: 120 g/10a active ingredient, evaluated 14 days after treatment
Method in brief: as §3

Amaranthus viridis [11] = assay: Test Example 4: herbicidal effect test by treatment of leave and stem in dry field farming (seven days after seeding); settings: 120 g/10a active ingredient; emulsion sprayed seven days after seeding; evaluated 14 days after treatment
Method in brief: (§4)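 Twenty seeds per species were mixed into the top 1 cm of alluvial soil in 36 cm^2 pots; emulsions were sprayed seven days after seeding at 100 L per 10 ares (120 g active ingredient per 10 ares). Herbicidal rate (%) = {1 − treated/untreated mean dry weight} × 100, 14 days after treatment, duplicate.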

Chenopodium album [12] = assay: as above; settings: 120 g/10a active ingredient; emulsion sprayed seven days after seeding; evaluated 14 days after treatment
Method in brief: as §4

Echinochloa crus-galli [13] = assay: as above; settings: 120 g/10a active ingredient; emulsion sprayed seven days after seeding; evaluated 14 days after treatment
Method in brief: as §4

southern crabgrass [14] = assay: as above; settings: 120 g/10a active ingredient; emulsion sprayed seven days after seeding; evaluated 14 days after treatment
Method in brief: as §4

Compound | Herbicidal rate (%) Echinochloa crus-galli (Echinochloa crus-galli [1]) | Herbicidal rate (%) Scirpus juncoides (Scirpus juncoides [2]) | Herbicidal rate (%) Lindernia pyxidaria [3] | Herbicidal rate (%) Monochoria vaginalis [3] | Herbicidal rate (%) Echinochloa crus-galli (Echinochloa crus-galli [4]) | Herbicidal rate (%) Scirpus juncoides (Scirpus juncoides [5]) | Herbicidal rate (%) Lindernia pyxidaria [6] | Herbicidal rate (%) Monochoria vaginalis [6] | herbicidal rate, Amaranthus viridis (Amaranthus viridis [7]) | herbicidal rate, Chenopodium album (Chenopodium album [8]) | herbicidal rate, Echinochloa crus-galli (Echinochloa crus-galli [9]) | herbicidal rate, southern crabgrass (southern crabgrass [10]) | herbicidal effect (herbicidal rate), Amaranthus viridis (Amaranthus viridis [11]) | herbicidal effect (herbicidal rate), Chenopodium album (Chenopodium album [12]) | herbicidal effect (herbicidal rate), Echinochloa crus-galli (Echinochloa crus-galli [13]) | herbicidal effect (herbicidal rate), southern crabgrass (southern crabgrass [14])
CCCC(CC)n1oc(=O)c(Cc2ccccc2N(S(=O)(=O)C(F)(F)F)S(=O)(=O)C(F)(F)F)c1C (stereo not shown) [Compound 1-971] | 100% | 100% | 100% | 100% | 100% | 90% | 80% | 90% | 80% | 60% | 90% | 80% | 40% | 50% | 90% | 90%
CCC(CC)Cn1oc(=O)c(Cc2ccccc2N(S(=O)(=O)C(F)(F)F)S(=O)(=O)C(F)(F)F)c1C [Compound 1-973] | 100% | 100% | 100% | 80% | 100% | 90% | 60% | 90% | 90% | 90% | 100% | 100% | 40% | 0% | 90% | 80%
Cc1c(Cc2ccccc2N(S(=O)(=O)C(F)(F)F)S(=O)(=O)C(F)(F)F)c(=O)on1CCC(C)C [Compound 1-974] | 100% | 90% | 90% | 80% | 100% | 90% | 90% | 90% | 100% | 100% | 90% | 90% | 40% | 40% | 90% | 50%
Cc1c(Cc2ccccc2N(S(=O)(=O)C(F)(F)F)S(=O)(=O)C(F)(F)F)c(=O)on1CCC(C)(C)C [Compound 1-975] | 100% | 90% | 90% | 80% | 100% | 80% | 70% | 80% | 90% | 90% | 80% | 90% | 50% | 40% | 50% | 0%
CCCCC(C)n1oc(=O)c(Cc2ccccc2N(S(=O)(=O)C(F)(F)F)S(=O)(=O)C(F)(F)F)c1C (stereo not shown) [Compound 1-977] | 100% | 90% | 100% | 100% | 100% | 90% | 80% | 90% | 70% | 50% | 80% | 80% | 60% | 80% | 90% | 80%
CCC(C)CCn1oc(=O)c(Cc2ccccc2N(S(=O)(=O)C(F)(F)F)S(=O)(=O)C(F)(F)F)c1C (stereo not shown) [Compound 1-978] | 100% | 90% | 90% | 80% | 100% | 60% | 50% | 60% | 90% | 90% | 80% | 90% | 40% | 40% | 60% | 50%
CCCCC(CC)Cn1oc(=O)c(Cc2ccccc2N(S(=O)(=O)C(F)(F)F)S(=O)(=O)C(F)(F)F)c1C (stereo not shown) [Compound 1-980] | 100% | 90% | 100% | 80% | 100% | 80% | 80% | 80% | 40% | 40% | 40% | 60% | 40% | 40% | 60% | 40%
C=CCn1oc(=O)c(Cc2ccccc2N(S(=O)(=O)C(F)(F)F)S(=O)(=O)C(F)(F)F)c1C [Compound 1-985] | 90% | 90% | 100% | 70% | 90% | 60% | 60% | 60% | 80% | 80% | 70% | 70% | 60% | 60% | 90% | 60%
C=CC(C)n1oc(=O)c(Cc2ccccc2N(S(=O)(=O)C(F)(F)F)S(=O)(=O)C(F)(F)F)c1C (stereo not shown) [Compound 1-986] | 90% | 90% | 90% | 80% | 90% | 90% | 40% | 70% | 60% | 60% | 100% | 80% | 60% | 40% | 90% | 90%
Cc1c(Cc2ccccc2N(S(=O)(=O)C(F)(F)F)S(=O)(=O)C(F)(F)F)c(=O)on1C1CCCCC1 [Compound 1-990] | 90% | 80% | 90% | 80% | 100% | 80% | 100% | 80% | 0% | 50% | 50% | 50% | 50% | 40% | 60% | 0%
